In ChEMBL document CHEMBL4334438, “Discovery of novel glycogen synthase kinase-3α inhibitors: Structure-based virtual screening, preliminary SAR and biological evaluation for treatment of acute myeloid leukemia” (Eur J Med Chem, 2019):

How the values were obtained:
[1] = target: Serine/threonine-protein kinase 25 (Homo sapiens) (UniProt O00506); assay: Inhibition of human STK25 (1 to 308 residues) assessed as residual activity at 1 uM using RLGRDKYKTLRQIRQ as substrate measured after 40 mins in presence of [gamma33P]ATP by scintillation counting method relative to control
[2] = target: Serine/threonine-protein kinase SIK3 (Homo sapiens) (UniProt Q9Y2K2); assay: Inhibition of recombinant human SIK3 (1 to 307 residues) assessed as residual activity at 1 uM using KKKVSRSGLYRSPSMPENLNRPR as substrate measured after 40 mins in presence of [gamma33P]ATP by scintillation counting method relative to control
Homo sapiens [3] = species: Homo sapiens; assay: Inhibition of recombinant human MAPKAPK2 A399G mutant (46 to end residues) assessed as residual activity at 1 uM using KKLNRTLSVA as substrate incubated for 40 mins in presence of [gamma-33ATP by scintillation counting based radiometry assay relative to control
[4] = target: Rhodopsin kinase GRK7 (Homo sapiens) (UniProt Q8WTQ7); assay: Inhibition of recombinant full length human GRK7 assessed as residual activity at 1 uM using casein as substrate at 40 mins in presence of [gamma-33ATP] by scintillation counting based radiometry assay relative to control
Sequence of Rhodopsin kinase GRK7 (Homo sapiens) (Q8WTQ7 whole entry): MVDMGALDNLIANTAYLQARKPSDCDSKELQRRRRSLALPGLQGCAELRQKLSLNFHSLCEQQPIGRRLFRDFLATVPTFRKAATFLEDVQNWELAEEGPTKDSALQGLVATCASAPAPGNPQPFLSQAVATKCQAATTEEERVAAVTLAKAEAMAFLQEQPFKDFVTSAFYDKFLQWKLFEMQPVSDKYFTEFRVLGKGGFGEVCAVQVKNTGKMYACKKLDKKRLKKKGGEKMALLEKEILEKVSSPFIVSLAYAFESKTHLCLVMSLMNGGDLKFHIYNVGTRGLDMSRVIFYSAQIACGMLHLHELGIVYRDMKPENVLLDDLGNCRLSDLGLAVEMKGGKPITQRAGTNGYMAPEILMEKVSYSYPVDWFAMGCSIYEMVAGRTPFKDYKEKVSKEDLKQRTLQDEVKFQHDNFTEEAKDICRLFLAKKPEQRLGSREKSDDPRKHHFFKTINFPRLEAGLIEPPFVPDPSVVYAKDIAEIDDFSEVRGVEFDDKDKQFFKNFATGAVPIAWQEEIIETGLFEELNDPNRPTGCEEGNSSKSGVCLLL

[5] = target: CDK7/Cyclin H/MNAT1 (Homo sapiens) (UniProt P51946+P50613+P51948); assay: Inhibition of recombinant full length human CDK7/cyclinH/MAT1 assessed as residual activity at 1 uM using peptide as substrate incubated for 40 mins in presence of [gamma-33ATP] by scintillation counting based radiometry assay relative to control; assay type: protein-complex assay
Homo sapiens [6] = species: Homo sapiens; assay: Inhibition of recombinant full-length human ATRIP/ATR M211T mutant at 1 uM assessed as residual activity at 1 uM using GST-cMyc-p53 as substrate measured after 40 mins by fluorescence assay
Homo sapiens [7] = species: Homo sapiens; assay: Inhibition of recombinant human full length PI3K p110alpha/p65alpha assessed as residual activity at 1 uM assessed as residual activity at 1 uM using phosphatidylinositol-4, 5-bisphosphate as substrate incubated for 40 mins in presence of [gamma33P]ATP by scintillation counting based radiometry assay relative to control
[8] = target: Tyrosine-protein kinase ABL1 (Homo sapiens) (UniProt P00519); assay: Inhibition of human ABL1 (27 to end residues) assessed as residual activity at 1 uM using EAIYAAPFAKKK as substrate incubated for 40 mins in presence of [gamma-33ATP] by scintillation counting based radiometry assay relative to control
[9] = tested on: Hepatocyte growth factor receptor (Homo sapiens), P08581 [D1228N]; assay: Inhibition of recombinant human MET A1209G/V1290L/D1246N mutant (974 to end residues) assessed as residual activity at 1 uM using KKKGQEEEYVFIE as substrate incubated for 40 mins in presence of [gamma-33ATP by scintillation counting based radiometry assay relative to control
[10] = target: Testis-specific serine/threonine-protein kinase 1 (Homo sapiens) (UniProt Q9BXA7); assay: Inhibition of recombinant full-length human TSSK1 at 1 uM assessed as residual activity at 1 uM using KKKVSRSGLYRSPSMPENLNRPR as substrate measured after 120 mins in presence of [gamma33P]ATP by scintillation counting method relative to control
[11] = target: Ephrin type-A receptor 7 (Homo sapiens) (UniProt Q15375); assay: Inhibition of recombinant human EphA7 (613 to 909 residues) assessed as residual activity at 1 uM using KTFCGTPEYLAPEVRREPRILSEEEQEMFRDFDYIADWC as substrate at 40 mins in presence of [gamma-33ATP] by scintillation counting based radiometry assay relative to control
Sequence of Ephrin type-A receptor 7 (Homo sapiens) (Q15375 28-998 limits assumed): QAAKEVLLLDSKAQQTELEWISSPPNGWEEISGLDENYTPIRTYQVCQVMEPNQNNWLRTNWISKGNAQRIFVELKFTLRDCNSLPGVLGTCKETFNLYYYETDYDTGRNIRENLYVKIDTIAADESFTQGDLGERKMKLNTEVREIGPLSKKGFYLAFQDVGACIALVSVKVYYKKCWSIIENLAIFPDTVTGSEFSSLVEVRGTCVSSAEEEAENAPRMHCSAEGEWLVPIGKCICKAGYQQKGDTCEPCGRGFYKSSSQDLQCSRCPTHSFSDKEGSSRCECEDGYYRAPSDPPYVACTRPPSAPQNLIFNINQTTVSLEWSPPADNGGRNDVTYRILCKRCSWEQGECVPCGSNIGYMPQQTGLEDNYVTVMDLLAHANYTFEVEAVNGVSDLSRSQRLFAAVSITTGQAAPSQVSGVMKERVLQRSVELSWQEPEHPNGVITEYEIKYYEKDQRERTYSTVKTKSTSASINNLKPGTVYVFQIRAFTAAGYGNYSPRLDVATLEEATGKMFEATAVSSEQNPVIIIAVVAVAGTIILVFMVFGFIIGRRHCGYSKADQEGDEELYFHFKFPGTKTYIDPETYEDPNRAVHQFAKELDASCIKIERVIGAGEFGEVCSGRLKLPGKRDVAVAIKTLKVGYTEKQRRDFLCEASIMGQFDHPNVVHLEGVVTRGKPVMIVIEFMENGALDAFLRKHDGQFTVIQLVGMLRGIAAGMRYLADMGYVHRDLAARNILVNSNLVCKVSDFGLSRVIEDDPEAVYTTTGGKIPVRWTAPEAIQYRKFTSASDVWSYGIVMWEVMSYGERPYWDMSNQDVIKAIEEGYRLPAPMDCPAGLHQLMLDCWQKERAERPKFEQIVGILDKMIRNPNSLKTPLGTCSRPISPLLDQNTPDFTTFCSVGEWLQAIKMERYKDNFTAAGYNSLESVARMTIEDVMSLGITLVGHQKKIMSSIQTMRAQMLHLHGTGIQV

Homo sapiens [12] = species: Homo sapiens; assay: Inhibition of recombinant human FLT4 V1128L/ H1146R double mutant (800 to end residues) assessed as residual activity at 1 uM using GGEEEEYFELVKKKK as substrate at 40 mins in presence of [gamma-33ATP] by scintillation counting based radiometry assay relative to control
[13] = target: Tribbles homolog 2 (Homo sapiens) (UniProt Q92519); assay: Inhibition of recombinant full-length human TRB2 at 1 uM assessed as residual activity at 1 uM using RRRFRPASPLRGPPK as substrate measured after 120 mins in presence of [gamma33P]ATP by scintillation counting method relative to control
[14] = target: Cyclin-dependent kinase-like 4 (Homo sapiens) (UniProt Q5MAI5); assay: Inhibition of recombinant full length human CDKL4 assessed as residual activity at 1 uM in presence of [gamma-33ATP] by scintillation counting based radiometry assay relative to control
Sequence of Cyclin-dependent kinase-like 4 (Homo sapiens) (Q5MAI5 whole entry): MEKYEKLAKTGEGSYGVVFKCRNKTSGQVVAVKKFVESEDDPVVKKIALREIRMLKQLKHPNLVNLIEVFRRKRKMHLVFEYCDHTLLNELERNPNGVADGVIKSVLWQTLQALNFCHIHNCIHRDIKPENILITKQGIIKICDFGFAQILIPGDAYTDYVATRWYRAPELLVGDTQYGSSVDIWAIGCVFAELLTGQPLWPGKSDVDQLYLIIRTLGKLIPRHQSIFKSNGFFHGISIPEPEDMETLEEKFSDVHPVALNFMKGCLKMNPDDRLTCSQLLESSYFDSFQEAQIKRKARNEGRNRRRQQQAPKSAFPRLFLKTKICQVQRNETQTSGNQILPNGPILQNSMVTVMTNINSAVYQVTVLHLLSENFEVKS

[15] = target: Mitogen-activated protein kinase kinase kinase 3 (Homo sapiens) (UniProt Q99759); assay: Inhibition of recombinant full length human MEKK3 assessed as residual activity at 1 uM using myelin basic protein as substrate incubated for 120 mins in presence of [gamma-33ATP by scintillation counting based radiometry assay relative to control
[16] = tested on: Receptor tyrosine-protein kinase erbB-2 (Homo sapiens), P04626 [G778D]; assay: Inhibition of recombinant human ERBB2 G778D mutant (676 to end residues) assessed as residual activity at 1 uM using poly(Glu, Tyr) 4:1 as substrate at 40 mins in presence of [gamma-33ATP] by scintillation counting based radiometry assay relative to control
[17] = tested on: Fibroblast growth factor receptor 1 (Homo sapiens), P11362 [V561M]; assay: Inhibition of recombinant human FGFR1 V561M mutant (456 to 765 residues) assessed as residual activity at 1 uM using GGEEEEYFELVKKKK as substrate at 40 mins in presence of [gamma-33ATP] by scintillation counting based radiometry assay relative to control
Sequence of Fibroblast growth factor receptor 1 (Homo sapiens), P11362 [V561M] (P11362 whole entry V561M, the tested form may be a part): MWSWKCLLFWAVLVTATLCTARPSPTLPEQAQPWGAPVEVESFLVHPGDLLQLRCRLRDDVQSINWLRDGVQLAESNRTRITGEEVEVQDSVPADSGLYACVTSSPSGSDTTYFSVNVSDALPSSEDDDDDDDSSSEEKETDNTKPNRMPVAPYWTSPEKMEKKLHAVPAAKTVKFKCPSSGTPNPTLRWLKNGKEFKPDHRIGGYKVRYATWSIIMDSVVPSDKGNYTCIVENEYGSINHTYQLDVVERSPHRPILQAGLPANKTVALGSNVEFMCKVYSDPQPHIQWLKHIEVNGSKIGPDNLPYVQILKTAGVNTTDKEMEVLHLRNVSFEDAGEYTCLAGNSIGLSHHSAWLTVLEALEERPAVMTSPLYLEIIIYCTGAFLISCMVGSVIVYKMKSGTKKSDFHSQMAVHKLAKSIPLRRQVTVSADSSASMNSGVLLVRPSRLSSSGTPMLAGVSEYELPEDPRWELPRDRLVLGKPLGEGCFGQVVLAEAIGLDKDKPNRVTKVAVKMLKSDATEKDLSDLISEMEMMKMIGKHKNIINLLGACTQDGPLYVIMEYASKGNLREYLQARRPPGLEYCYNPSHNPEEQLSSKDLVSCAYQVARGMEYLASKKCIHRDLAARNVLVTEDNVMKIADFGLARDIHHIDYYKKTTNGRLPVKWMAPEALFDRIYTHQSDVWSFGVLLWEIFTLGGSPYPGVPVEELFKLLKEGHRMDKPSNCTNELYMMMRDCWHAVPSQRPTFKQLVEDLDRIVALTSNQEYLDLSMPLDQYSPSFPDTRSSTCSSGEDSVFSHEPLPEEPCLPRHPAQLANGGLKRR

[18] = target: Cyclin-dependent kinase 13/Cyclin-K (Homo sapiens) (UniProt Q14004+O75909); assay: Inhibition of recombinant full length human CDK13/cyclinK assessed as residual activity at 1 uM using RSRSRSRSRSRSRSR as substrate incubated for 120 mins in presence of [gamma-33ATP] by scintillation counting based radiometry assay relative to control; assay type: protein-complex assay
Sequence of Cyclin-dependent kinase 13/Cyclin-K (Homo sapiens) (O75909 whole entry, looked up, the tested form may be a part): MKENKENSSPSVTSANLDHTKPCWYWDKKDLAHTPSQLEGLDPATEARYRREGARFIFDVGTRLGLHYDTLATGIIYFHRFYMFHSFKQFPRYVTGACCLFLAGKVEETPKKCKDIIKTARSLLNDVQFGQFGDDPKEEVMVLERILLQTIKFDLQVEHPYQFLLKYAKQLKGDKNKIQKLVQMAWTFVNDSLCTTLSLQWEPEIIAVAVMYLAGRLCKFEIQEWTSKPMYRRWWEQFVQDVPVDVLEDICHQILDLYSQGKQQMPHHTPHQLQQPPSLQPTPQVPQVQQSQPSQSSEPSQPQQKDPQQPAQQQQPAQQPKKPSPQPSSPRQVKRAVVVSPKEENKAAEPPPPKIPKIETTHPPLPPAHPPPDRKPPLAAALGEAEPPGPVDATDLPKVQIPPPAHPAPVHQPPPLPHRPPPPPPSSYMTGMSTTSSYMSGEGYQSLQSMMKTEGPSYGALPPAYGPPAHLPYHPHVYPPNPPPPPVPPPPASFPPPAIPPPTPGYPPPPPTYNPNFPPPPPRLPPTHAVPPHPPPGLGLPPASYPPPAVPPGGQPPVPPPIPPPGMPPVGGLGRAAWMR
Sequence of Cyclin-dependent kinase 13/Cyclin-K (Homo sapiens) (Q14004 whole entry, looked up, the tested form may be a part): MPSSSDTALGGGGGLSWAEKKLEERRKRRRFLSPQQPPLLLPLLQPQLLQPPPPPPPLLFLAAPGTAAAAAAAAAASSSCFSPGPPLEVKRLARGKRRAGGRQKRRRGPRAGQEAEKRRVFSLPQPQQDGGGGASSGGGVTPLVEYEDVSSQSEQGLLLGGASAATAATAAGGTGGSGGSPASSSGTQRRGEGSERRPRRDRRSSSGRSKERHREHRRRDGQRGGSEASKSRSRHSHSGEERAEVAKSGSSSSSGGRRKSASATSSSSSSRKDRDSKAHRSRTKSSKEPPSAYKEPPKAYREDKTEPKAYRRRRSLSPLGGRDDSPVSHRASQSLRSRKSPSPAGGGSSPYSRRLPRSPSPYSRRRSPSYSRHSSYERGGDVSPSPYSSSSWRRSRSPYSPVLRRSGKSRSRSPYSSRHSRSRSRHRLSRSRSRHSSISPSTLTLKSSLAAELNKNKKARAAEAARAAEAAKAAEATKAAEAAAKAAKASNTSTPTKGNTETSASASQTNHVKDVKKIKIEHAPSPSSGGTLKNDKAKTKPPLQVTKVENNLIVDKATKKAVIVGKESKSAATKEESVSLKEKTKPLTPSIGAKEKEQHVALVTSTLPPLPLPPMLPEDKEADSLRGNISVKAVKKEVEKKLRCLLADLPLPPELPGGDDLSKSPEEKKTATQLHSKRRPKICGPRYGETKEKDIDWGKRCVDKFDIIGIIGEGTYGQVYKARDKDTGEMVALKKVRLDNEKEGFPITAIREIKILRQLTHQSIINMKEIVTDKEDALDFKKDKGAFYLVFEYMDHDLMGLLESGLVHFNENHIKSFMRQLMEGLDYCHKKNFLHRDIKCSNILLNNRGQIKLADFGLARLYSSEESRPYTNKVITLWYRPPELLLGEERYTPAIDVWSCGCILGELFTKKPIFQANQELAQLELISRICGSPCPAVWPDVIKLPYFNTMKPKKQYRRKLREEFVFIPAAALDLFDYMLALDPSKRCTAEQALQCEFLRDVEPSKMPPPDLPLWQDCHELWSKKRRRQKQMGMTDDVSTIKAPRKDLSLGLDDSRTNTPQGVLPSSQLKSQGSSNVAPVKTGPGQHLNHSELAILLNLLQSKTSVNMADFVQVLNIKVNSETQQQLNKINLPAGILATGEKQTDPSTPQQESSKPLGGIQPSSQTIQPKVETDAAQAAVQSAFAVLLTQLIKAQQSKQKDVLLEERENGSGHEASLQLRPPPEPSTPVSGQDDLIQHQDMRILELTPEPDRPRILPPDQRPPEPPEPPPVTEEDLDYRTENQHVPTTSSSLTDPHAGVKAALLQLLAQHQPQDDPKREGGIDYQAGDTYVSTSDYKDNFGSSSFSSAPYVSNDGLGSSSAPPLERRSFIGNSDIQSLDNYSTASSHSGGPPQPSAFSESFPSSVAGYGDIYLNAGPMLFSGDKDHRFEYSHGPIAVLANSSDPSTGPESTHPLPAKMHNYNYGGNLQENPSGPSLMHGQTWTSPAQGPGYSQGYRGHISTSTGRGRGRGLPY

[19] = target: Serine/threonine-protein kinase Nek1 (Homo sapiens) (UniProt Q96PY6); assay: Inhibition of recombinant human NEK1 (1 to 505 residues) assessed as residual activity at 1 uM using RLGRDKYKTLRQI as substrate measured after 40 mins in presence of [gamma33P]ATP by scintillation counting based radiometry assay relative to control
[20] = target: Ribosomal protein S6 kinase alpha-2 (Homo sapiens) (UniProt Q15349); assay: Inhibition of recombinant full length human Rsk3 assessed as residual activity at 1 uM using KKKNRTLSVA as substrate measured after 40 mins in presence of [gamma33P]ATP by scintillation counting method relative to control
[21] = tested on: Tyrosine-protein kinase ABL1 (Homo sapiens), P00519 [M351T]; assay: Inhibition of human ABL1 M351T mutant (27 to end residues) assessed as residual activity at 1 uM using EAIYAAPFAKKK as substrate incubated for 40 mins in presence of [gamma-33ATP] by scintillation counting based radiometry assay relative to control

For `C=CCOC(=O)c1cc(-c2ccc(/C=C3/NC(=S)NC3=O)o2)ccc1Cl`, the Activity [1] was 90%, the Activity [2] was 96% and the Activity (Homo sapiens [3]) was 106%. The Activity [4] was 98%, the Activity [5] was 94% and the Activity (Homo sapiens [6]) was 102%. For the same compound, the Activity (Homo sapiens [7]) was 85%, the Activity [8] was 122% and the Activity [9] was 114%. It also gave an Activity [10] of 97%, an Activity [11] of 99% and an Activity (Homo sapiens [12]) of 82%. For the same compound, the Activity [13] was 49%, the Activity [14] was 58% and the Activity [15] was 96%. The Activity [16] was 118%, the Activity [17] was 102% and the Activity [18] was 96%. The Activity [19] was 95%, the Activity [20] was 112% and the Activity [21] was 103%.
`N=C1NC(=O)/C(=C\c2ccc(-c3cccc([N+](=O)[O-])c3)o2)S1` gave an Activity [1] of 97%, an Activity [2] of 101% and an Activity (Homo sapiens [3]) of 103%. The Activity [4] was 96%, the Activity [5] was 92% and the Activity (Homo sapiens [6]) was 111%. It also gave an Activity (Homo sapiens [7]) of 100%, an Activity [8] of 85% and an Activity [9] of 105%. It also gave an Activity [10] of 91%, an Activity [11] of 101% and an Activity (Homo sapiens [12]) of 116%. It also gave an Activity [13] of 40%, an Activity [14] of 65% and an Activity [15] of 98%. For the same compound, the Activity [16] was 103%, the Activity [17] was 91% and the Activity [18] was 102%. For the same compound, the Activity [19] was 107%, the Activity [20] was 96% and the Activity [21] was 97%.
